Test results taken from ChEMBL document CHEMBL5154647, “Discovery of seneciobipyrrolidine derivatives for the amelioration of glucose homeostasis disorders through 4E-BP1/Akt/AMPK signaling activation” (Eur J Med Chem, 2022).

How the values were obtained:
[1] = Toxicity in db/db mouse assessed as effect on pancreas morphology at 300 mg/kg, po bid administered for 21 days by H and E staining based microscopic analysis; assay type: organism-based; details: in vivo, 504 h, time 21 day
[2] = Toxicity in db/db mouse assessed as increase in body weight at 300 mg/kg, po administered for 21 days; assay type: organism-based; details: in vivo, 504 h, time 21 day
[3] = Toxicity in db/db mouse liver assessed as reduction of fat accumulation in liver at 300 mg/kg, po bid administered for 21 days by H and E staining based microscopic analysis; assay type: organism-based; details: in vivo, 504 h, time 21 day
[4] = Toxicity in db/db mouse assessed as reduction in total cholesterol at 300 mg/kg, po administered for 21 days; assay type: organism-based; details: in vivo, 504 h, time 21 day
Mus musculus [5] = assay: Antidiabetic activity in db/db mouse assessed as reduction in fasting blood glucose level at 300 mg/kg, po bid measured up to 21 days; assay type: functional; design: scale not given: the % may be the effect or the level left; details: time <= 21 day
Mus musculus [6] = assay: Antidiabetic activity in db/db mouse assessed as reduction in random blood glucose level at 300 mg/kg, po bid measured up to 21 days; assay type: functional; design: scale not given: the % may be the effect or the level left; details: time <= 21 day
[7] = Toxicity in db/db mouse assessed as reduction in triglyceride at 300 mg/kg, po administered for 21 days; assay type: organism-based; details: in vivo, 504 h, time 21 day
[8] = Toxicity in db/db mouse assessed as effect on muscle tissue morphology at 300 mg/kg, po bid administered for 21 days by H and E staining based microscopic analysis; assay type: organism-based; details: in vivo, 504 h, time 21 day
Mus musculus [9] = assay: Antidiabetic activity in db/db mouse assessed as reduction in blood glucose level at 300 mg/kg, po bid measured after 6 hrs; assay type: functional; design: scale not given: the % may be the effect or the level left

Question: Which Activity [1] does the source give for `CN(C)C(=N)NC(=N)N` [METFORMIN] here?
Answer: Its Activity is “Non-Toxic”.

Question: What about the Activity [2] of the same compound?
Answer: The Activity was “Non-Toxic”.

Question: And the Activity [3]?
Answer: The Activity was “Toxic”.

Question: And the Activity [4]?
Answer: The Activity was “Toxic”.

Question: What about the Activity (Mus musculus [5]) of the same compound?
Answer: The Activity was 26.6%.

Question: And the Activity (Mus musculus [6])?
Answer: Its Activity is 40.3%.

Question: What about the Activity [7] of the same compound?
Answer: Its Activity is “Toxic”.

Question: And the Activity [8]?
Answer: The Activity was “Non-Toxic”.

Question: And the Activity (Mus musculus [9])?
Answer: Its Activity is 49.7%.
